Patent publication US20230286969A1, “AROMATIC SPIRO RING AMIDE DERIVATIVES FOR THE TREATMENT AND PROPHYLAXIS OF HEPATITIS B VIRUS INFECTION” (Hoffmann-La Roche Inc., priority 2020, published 2023)

Columns and labels:
Assay type in all cases: cell-based
[1] = PHH natural infection assay, cytotoxicity (Cell Counting Kit-8); settings: human, HBV-infected primary human hepatocytes, CCK8, end of treatment
Procedure, shortened: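 HBV-infected at 200 GE/cell with 4% PEG8000 for 24 h, then sandwich-cultured 72 h in 1% DMSO and 0.25 mg/mL matrix gel. Compound added twice at 72-h intervals; supernatant HBsAg and HBeAg read by AlphaLISA, HBV DNA by quantitative fluorescence PCR kit. Cytotoxicity by CCK-8.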

HBsAg = assay: PHH HBV natural infection assay, HBsAg (alphalisa); settings: Hepatitis B virus, Hepatocyte, 72 h, read-out: HBsAg IC50, HBV-infected primary human hepatocytes, supernatant, compound medium refreshed two times with 72-hour interval
Procedure, shortened: (§1)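 Primary human hepatocytes infected with HBV at 200 GE/cell plus 4% PEG8000 for 24 h, then sandwich-cultured 72 h. Compounds were added in two refreshes 72 h apart. HBsAg and HBeAg in supernatant measured by AlphaLISA.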

HBeAg = assay: PHH HBV natural infection assay, HBeAg (alphalisa); settings: Hepatitis B virus, Hepatocyte, 72 h, read-out: HbeAg IC50, HBV-infected primary human hepatocytes, supernatant, compound medium refreshed two times with 72-hour interval
Procedure, shortened: as §1

Compound	CC50 at 144 h [1] [nM]	IC50 (HBsAg) [nM]	IC50 (HBeAg) [nM]
O=C(NC1CC2(C1)CC(c1nc3ccc(F)cc3o1)C2)c1ccc(C(F)(F)F)o1 (stereo not drawn) [Example 47, N-[6-(6-fluoro-1,3-benzoxazol-2-yl)spiro[3.3]heptan-2-yl]-5-(trifluoromethyl)furan-2-carboxamide]	> 100000	9590	10600
CS(=O)(=O)c1ccc(C(=O)NC2CC3(C2)CC(c2nc4cc(Cl)cnc4o2)C3)o1 (stereo not drawn) [Example 48, N-[6-(6-chlorooxazolo[5,4-b]pyridin-2-yl)spiro[3.3]heptan-2-yl]-5-methylsulfonyl-furan-2-carboxamide]	> 100000	2400	1820
O=C(NC1CC2(C1)CC(c1nc3cc(Cl)cnc3o1)C2)c1ccc(S(=O)(=O)C2CC2)o1 (stereo not drawn) [Example 49, N-[6-(6-chlorooxazolo[5,4-b]pyridin-2-yl)spiro[3.3]heptan-2-yl]-5-cyclopropylsulfonyl-furan-2-carboxamide]	84500	2400	1740
O=C(NC1CC2(C1)CC(c1nc3cc(Cl)cnc3o1)C2)c1ccc([S+]([O-])C2CC2)o1 (stereo not drawn) [Example 50, N-[6-(6-chlorooxazolo[5,4-b]pyridin-2-yl)spiro[3.3]heptan-2-yl]-5-cyclopropylsulfinyl-furan-2-carboxamide]	> 100000	540	350
O=C(NC1CC2(C1)CC(c1nc3cnc(Cl)cc3o1)C2)c1ccc(S(=O)(=O)C2CC2)o1 (stereo not drawn) [Example 51, N-[6-(6-chlorooxazolo[4,5-c]pyridin-2-yl)spiro[3.3]heptan-2-yl]-5-cyclopropylsulfonyl-furan-2-carboxamide]	> 100000	1800	1140
CS(=N)(=O)c1ccc(C(=O)NC2CC3(C2)CC(c2nc4cc(Cl)ccc4o2)C3)o1 (stereo not drawn) [Example 52, N-[6-(5-chloro-1,3-benzoxazol-2-yl)spiro[3.3]heptan-2-yl]-5-(methylsulfonimidoyl)furan-2-carboxamide]	72000	1700	1200
[H][C@]1(NC(=O)c2ccc([S@](C)(=N)=O)o2)C[C@]2(C1)C[C@]([H])(c1nc3cc(Cl)ccc3o1)C2 (stereo partly drawn) [Example 52-d, (Ra)—N-[6-(5-chloro-1,3-benzoxazol-2-yl)spiro[3.3]heptan-2-yl]-5-[(R)-methylsulfonimidoyl]furan-2-carboxamide]	> 100000	966	876
N=S(=O)(c1ccc(C(=O)NC2CC3(C2)CC(c2nc4cc(Cl)ccc4o2)C3)o1)C1CC1 (stereo not drawn) [Example 53, N-[6-(5-chloro-1,3-benzoxazol-2-yl)spiro[3.3]heptan-2-yl]-5-(cyclopropylsulfonimidoyl)furan-2-carboxamide]	> 10000	494	394
[H][C@]1(NC(=O)c2ccc([S@](=N)(=O)C3CC3)o2)C[C@]2(C1)C[C@]([H])(c1nc3cc(Cl)ccc3o1)C2 (stereo partly drawn) [Example 53-c, (Ra)—N-[6-(5-chloro-1,3-benzoxazol-2-yl)spiro[3.3]heptan-2-yl]-5-[(R)-cyclopropylsulfonimidoyl]furan-2-carboxamide]	91900	650	621
N=S(=O)(CC1CC1)c1ccc(C(=O)NC2CC3(C2)CC(c2nc4cc(Cl)ccc4o2)C3)o1 (stereo not drawn) [Example 54, N-[6-(5-chloro-1,3-benzoxazol-2-yl)spiro[3.3]heptan-2-yl]-5-(cyclopropylmethylsulfonimidoyl)furan-2-carboxamide]	88800	470	542
CC(C)CS(=N)(=O)c1ccc(C(=O)NC2CC3(C2)CC(c2nc4cc(Cl)ccc4o2)C3)o1 (stereo not drawn) [Example 55, N-[6-(5-chloro-1,3-benzoxazol-2-yl)spiro[3.3]heptan-2-yl]-5-(isobutylsulfonimidoyl)furan-2-carboxamide]	83300	802	988
